Reference: US20250154173A1 (Merck Sharp & Dohme LLC, priority 2023, published 2025)

Target: T1, GST-RIPK1 (recombinant GST-RIPK1 kinase domain (residues 1-327)) (Homo sapiens, UniProt Q13546)
T1 construct: recombinant GST-RIPK1 kinase domain (residues 1-327) enzyme produced from baculovirus-transfected Sf21 cells; host or cells: baculovirus-transfected Sf21 insect cells
T1 sequence (Q13546 1-327): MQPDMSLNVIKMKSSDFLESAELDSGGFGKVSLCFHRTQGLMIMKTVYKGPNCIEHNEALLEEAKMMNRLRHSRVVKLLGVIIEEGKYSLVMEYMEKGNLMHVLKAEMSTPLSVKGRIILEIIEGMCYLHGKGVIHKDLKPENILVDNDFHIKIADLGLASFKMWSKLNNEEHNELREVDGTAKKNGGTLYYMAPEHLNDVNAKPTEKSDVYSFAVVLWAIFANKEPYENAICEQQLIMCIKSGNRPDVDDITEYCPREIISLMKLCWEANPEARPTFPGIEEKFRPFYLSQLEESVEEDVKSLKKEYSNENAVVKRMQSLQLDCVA
Experiment: RIPK1-ADP-Glo Enzymatic Assay
Assay type: biochemical
Conditions: ten-point titration, top compound concentration of 100000 nM; 25 nM GST-RIPK1, 300 μM ATP, 3 μM dephosphorylated-MBP; 30 min pre-incubation, 150 min reaction
Outline: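 GST-RIPK1 kinase domain (residues 1-327, Sf21-expressed), 25 nM, preincubated 30 min with compound, then reacted 150 min with 300 μM ATP and 3 μM dephosphorylated MBP in pH 7.3 Hepes buffer, 1% DMSO. ADP measured by ADP-Glo luminescence; EC50 from ten-point titration (top 100000 nM), four-parameter fit.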

EC50 [µM]	Structure (SMILES)
0.029	N#Cc1ccc(COC2CC3(C2)O[C@@H]2CC[C@@H](c4cnccn4)N2C3=O)cc1 (single isomer, unassigned) [Example 22.7, 4-({[(5′S,7a′R)-3′-oxo-5′-(pyrazin-2-yl)tetrahydro-3′H-spiro[cyclobutane-1,2′-pyrrolo[2,1-b][1,3]oxazol]-3-yl]oxy}methyl)benzonitrile]
0.086	O=C1N2[C@@H](CC[C@H]2c2cnccn2)OC12CC(OCc1cccnc1C(F)(F)F)C2 (stereo partly drawn) [Example 20.6, (5′S,7a′R)-5′-(pyrazin-2-yl)-3-{[2-(trifluoromethyl)pyridin-3-yl]methoxy}tetrahydro-3′H-spiro[cyclobutane-1,2′-pyrrolo[2,1-b][1,3]oxazol]-3′-one]
0.083	Cn1ccc([C@@H]2CC[C@H]3OC4(CC(Oc5cncc(Cl)c5)C4)C(=O)N32)n1 (stereo partly drawn) [Example 20.9, (5′S,7a′R)-3-[(5-chloropyridin-3-yl)oxy]-5′-(1-methyl-1H-pyrazol-3-yl)tetrahydro-3′H-spiro[cyclobutane-1,2′-pyrrolo[2,1-b][1,3]oxazol]-3′-one]
0.027	O=C1N2[C@@H](CC[C@H]2c2cnccn2)OC12CC(Oc1cccnc1)C2 (stereo partly drawn) [Example 19.21, (5′S,7a′R)-5′-(pyrazin-2-yl)-3-[(pyridin-3-yl)oxy]tetrahydro-3′H-spiro[cyclobutane-1,2′-pyrrolo[2,1-b][1,3]oxazol]-3′-one]
0.018	N#Cc1cccc(OC2CC3(C2)O[C@@H]2CC[C@@H](c4cnccn4)N2C3=O)c1 (stereo partly drawn) [Example 19.15, 3-{[(5′S,7a′R)-3′-oxo-5′-(pyrazin-2-yl)tetrahydro-3′H-spiro[cyclobutane-1,2′-pyrrolo[2,1-b][1,3]oxazol]-3-yl]oxy}benzonitrile]
0.531	Cc1ccc(OC2CC3(C2)O[C@@H]2CC[C@@H](c4ccn(C)n4)N2C3=O)cn1 (stereo partly drawn) [Example 19.7, (5′S,7a′R)-5′-(1-methyl-1H-pyrazol-3-yl)-3-[(6-methylpyridin-3-yl)oxy]tetrahydro-3′H-spiro[cyclobutane-1,2′-pyrrolo[2,1-b][1,3]oxazol]-3′-one]
0.012	O=C1N2[C@@H](CC[C@H]2c2cnccn2)OC12CC(Oc1ccc(F)c(F)c1)C2 (stereo partly drawn) [Example 19.22, (5′S,7a′R)-3-(3,4-difluorophenoxy)-5′-(pyrazin-2-yl)tetrahydro-3′H-spiro[cyclobutane-1,2′-pyrrolo[2,1-b][1,3]oxazol]-3′-one]
0.022	O=C1N2C(CC[C@H]2c2cnccn2)OC12CC(OCc1cc3ncccc3s1)C2 (stereo partly drawn) [Example 18.91, (5′S)-5′-(pyrazin-2-yl)-3-[(thieno[3,2-b]pyridin-2-yl)methoxy]tetrahydro-3′H-spiro[cyclobutane-1,2′-pyrrolo[2,1-b][1,3]oxazol]-3′-one]
0.025	N#Cc1cccc(COC2CC3(C2)O[C@@H]2CC[C@@H](c4cnccn4)N2C3=O)c1 (stereo partly drawn) [Example 18.109, 3-((((5′S,7a′R)-3′-oxo-5′-(pyrazin-2-yl)tetrahydro-3′H-spiro[cyclobutane-1,2′-pyrrolo[2,1-b]oxazol]-3-yl)oxy)methyl)benzonitrile]

Second part, the compound before the results:

Structure (SMILES)	EC50 [µM]
O=C1N2[C@@H](CC[C@H]2c2cnccn2)OC12CC(OCc1ccc(-c3nnco3)cc1)C2 (stereo partly drawn) [Example 18.58, (5′S, 7a′R)-3-{[4-(1,3,4-oxadiazol-2-yl)phenyl]methoxy}-5′-(pyrazin-2-yl)tetrahydro-3′H-spiro[cyclobutane-1,2′-pyrrolo[2,1-b][1,3]oxazol]-3′-one]	0.04
O=C1N2[C@@H](CC[C@H]2c2cnccn2)OC12CC(Oc1cnccn1)C2 (stereo partly drawn) [Example 9.66, (5′S,7a′R)-5′-(pyrazin-2-yl)-3-[(pyrazin-2-yl)oxy]tetrahydro-3′H-spiro[cyclobutane-1,2′-pyrrolo[2,1-b][1,3]oxazol]-3′-one]	0.021
O=C1N2[C@@H](CC[C@H]2c2ccccc2)OC12CC(Oc1cncc(Cl)c1)C2 (stereo partly shown) [Example 8.17]	0.035
O=C1N2[C@@H](CC[C@H]2c2ccccc2)OC12CC(Oc1cncc(C(F)(F)F)c1)C2 (stereo partly drawn) [Example 8.8, (5′S,7a′R)-5′-phenyl-3-{[5-(trifluoromethyl)pyridin-3-yl]oxy}tetrahydro-3′H-spiro[cyclobutane-1,2′-pyrrolo[2,1-b][1,3]oxazol]-3′-one]	0.155
O=C1N2[C@@H](CC[C@H]2c2cc(F)cc(F)c2)O[C@]12C[C@H](Oc1ncnn3c(Br)ccc13)C2 [Example 11.1, (1r,3R,5′S,7a′R)-3-((7-bromopyrrolo[2,1-f][1,2,4]triazin-4-yl)oxy)-5′-(3,5-difluorophenyl)tetrahydro-3′H-spiro[cyclobutane-1,2′-pyrrolo[2,1-b]oxazol]-3′-one]	0.012
N#CCc1ncc(COC2CC3(C2)OC2CC[C@@H](c4cnccn4)N2C3=O)cc1Cl (stereo partly drawn) [Example 18.49, [3-chloro-5-({[(5′S)-3′-oxo-5′-(pyrazin-2-yl)tetrahydro-3′H-spiro[cyclobutane-1,2′-pyrrolo[2,1-b][1,3]oxazol]-3-yl]oxy}methyl)pyridin-2-yl]acetonitrile]	0.059
O=C1N2C(CC[C@H]2c2cnccn2)OC12CC(OCc1ccc(OC3CCOCC3)nc1)C2 (stereo partly drawn) [Example 18.57, (5′S)-3-({6-[(oxan-4-yl)oxy]pyridin-3-yl}methoxy)-5′-(pyrazin-2-yl)tetrahydro-3′H-spiro[cyclobutane-1,2′-pyrrolo[2,1-b][1,3]oxazol]-3′-one]	0.109
N#Cc1ccc2c(O[C@H]3C[C@@]4(C3)O[C@@H]3CC[C@@H](c5cc(F)cc(F)c5)N3C4=O)ncnn12 [Example 11.2, 4-(((1r,3R,5′S,7a′R)-5′-(3,5-difluorophenyl)-3′-oxotetrahydro-3′H-spiro[cyclobutane-1,2′-pyrrolo[2,1-b]oxazol]-3-yl)oxy)pyrrolo[2,1-f][1,2,4]triazine-7-carbonitrile]	0.016
O=C1N2C(CC[C@H]2c2cnccn2)OC12CC(OCc1cnc(N3CCOCC3)nc1)C2 (stereo partly drawn) [Example 18.24, (5′S)-3-{[2-(morpholin-4-yl)pyrimidin-5-yl]methoxy}-5′-(pyrazin-2-yl)tetrahydro-3′H-spiro[cyclobutane-1,2′-pyrrolo[2,1-b][1,3]oxazol]-3′-one]	0.31
O=C1N2C(CC[C@H]2c2cnccn2)OC12CC(OCc1cncc(OCCF)c1)C2 (stereo partly drawn) [Example 18.77, (5′S)-3-{[5-(2-fluoroethoxy)pyridin-3-yl]methoxy}-5′-(pyrazin-2-yl)tetrahydro-3′H-spiro[cyclobutane-1,2′-pyrrolo[2,1-b][1,3]oxazol]-3′-one]	0.174
N#CC1(c2ccc(COC3CC4(C3)OC3CC[C@@H](c5cnccn5)N3C4=O)c(Cl)c2)CC1 (stereo partly drawn) [Example 18.29, 1-[3-chloro-4-({[(5′S)-3′-oxo-5′-(pyrazin-2-yl)tetrahydro-3′H-spiro[cyclobutane-1,2′-pyrrolo[2,1-b][1,3]oxazol]-3-yl]oxy}methyl)phenyl]cyclopropane-1-carbonitrile]	0.012
O=C1N2C(CC[C@H]2c2cnccn2)OC12CC(OCc1cc(-n3ccnc3)ccn1)C2 (stereo partly shown) [Example 18.39]	0.301
O=C1N2[C@@H](CC[C@H]2c2cncc(F)c2)OC12CCC(Oc1ccccc1)CC2 (single isomer, unassigned) [Example 16.3, (1r or s),(5′S,7a′R)-5′-(5-fluoropyridin-3-yl)-4-phenoxytetrahydro-3′H-spiro[cyclohexane-1,2′-pyrrolo[2,1-b]oxazol]-3′-one]	0.062
N#Cc1ccc(COC2CC3(C2)OC2CC[C@@H](c4cnccn4)N2C3=O)c2cccnc12 (stereo partly drawn) [Example 18.65, 5-({[(5′S)-3′-oxo-5′-(pyrazin-2-yl)tetrahydro-3′H-spiro[cyclobutane-1,2′-pyrrolo[2,1-b][1,3]oxazol]-3-yl]oxy}methyl)quinoline-8-carbonitrile]	0.032
COc1ccc2cc(COC3CC4(C3)OC3CC[C@@H](c5cnccn5)N3C4=O)cc(C)c2n1 (stereo partly drawn) [Example 18.89, (5′S)-3-[(2-methoxy-8-methylquinolin-6-yl)methoxy]-5′-(pyrazin-2-yl)tetrahydro-3′H-spiro[cyclobutane-1,2′-pyrrolo[2,1-b][1,3]oxazol]-3′-one]	0.238
O=C1N2[C@@H](CC[C@H]2c2ccccc2)OC12CC(Oc1cccc(-c3nnco3)c1)C2 (stereo partly drawn) [Example 8.16, (5′S,7a′R)-3-[3-(1,3,4-oxadiazol-2-yl)phenoxy]-5′-phenyltetrahydro-3′H-spiro[cyclobutane-1,2′-pyrrolo[2,1-b][1,3]oxazol]-3′-one]	0.058
O=C1N2[C@@H](CC[C@H]2c2ccccc2)OC12CC(Oc1ccncc1F)C2 (stereo partly drawn) [Example 8.7, (5′S,7a′R)-3-[(3-fluoropyridin-4-yl)oxy]-5′-phenyltetrahydro-3′H-spiro[cyclobutane-1,2′-pyrrolo[2,1-b][1,3]oxazol]-3′-one]	0.074
O=C1N2C(CC[C@H]2c2cnccn2)OC12CC(OCc1nnc(Cc3ccccc3)s1)C2 (stereo partly drawn) [Example 18.64, (5′S)-3-[(5-benzyl-1,3,4-thiadiazol-2-yl)methoxy]-5′-(pyrazin-2-yl)tetrahydro-3′H-spiro[cyclobutane-1,2′-pyrrolo[2,1-b][1,3]oxazol]-3′-one]	0.122
COc1ccc(COC2CC3(C2)OC2CC[C@@H](c4cnccn4)N2C3=O)cn1 (stereo partly drawn) [Example 18.70, (5′S)-3-[(6-methoxypyridin-3-yl)methoxy]-5′-(pyrazin-2-yl)tetrahydro-3′H-spiro[cyclobutane-1,2′-pyrrolo[2,1-b][1,3]oxazol]-3′-one]	0.15
